Values quoted from earlier work, collected in patent publication US20050095265A1, “Process for making larvicidal evaporation suppressant powder” (priority 2002, published 2005).

Key:
[1] = system: Culex quinquefasciatus
[2] = system: Anopheles gambiae

effect on larvae of feeding on particles floating on the water surface ([1]; particles on water surface of test units, apparently fed upon by mosquito larvae) | SMILES | larvicidal effect ([1]; film-forming compound on water surface, Culex quinquefasciatus larvae) | influence on aquatic larvae [2] | mosquito larvae mortality ([1]; as reported by Lorenzen and Meinke)
no ill effect | CCCCCCCCCCCCCCCCO [cetyl alcohol, n-hexadecanol] | no larvicidal effect | no appreciable influence | –
– | CCCCCCCCCCCCO [lauryl alcohol, dodecanol] | – | – | cause mosquito larvae mortality
